Series [1] deals with Staphylococcus aureus. Put plainly: Antimicrobial activity against Staphylococcus aureus IVDC C56005 assessed as microbial growth inhibition in presence of proteinase K. Format: functional, organism-based.
Series [2] concerns Enterococcus faecalis. Briefly: Antimicrobial activity against Streptococcus faecalis IVDC C55614 by microdilution assay. Format: functional. A general note: In broth dilution the organism is exposed to a series of concentrations in liquid medium.
A short description of series [3]: Toxicity in human RBCs assessed as induction hemolysis at 0.01 to 200 ug/mL. It is filed as cell-based. Conditions: erythrocyte.
Series [4] deals with Staphylococcus aureus. Briefly: Antimicrobial activity against Staphylococcus aureus IVDC C56005 assessed as microbial growth inhibition in presence of trypsin. Format: functional, organism-based.
In series [5] the test system is Staphylococcus aureus. Briefly: Antimicrobial activity against Staphylococcus aureus IVDC C56005 by microdilution assay. Format: functional.
Series [6] concerns Staphylococcus aureus. Briefly: Antimicrobial activity against Staphylococcus aureus IVDC C56005 assessed as microbial growth inhibition at 55 degC for 20 mins. It is filed as functional, organism-based.
The subject of series [7] is Escherichia coli. Put plainly: Antimicrobial activity against Escherichia coli K99 by microdilution assay. Format: functional.
Series [8] has as its system Staphylococcus aureus. Put plainly: Antimicrobial activity against Staphylococcus aureus IVDC C56005 assessed as microbial growth inhibition at pH 4 to 9. Format: functional, organism-based.
In series [9] the test system is Escherichia coli. Put plainly: Antimicrobial activity against Escherichia coli K12D31 by microdilution assay. It is filed as functional.
Series [10] has as its system Staphylococcus aureus. Briefly: Antimicrobial activity against Staphylococcus aureus IVDC C56005 assessed as microbial growth inhibition at >85 degC for 20 mins. Format: functional, organism-based.
The subject of series [11] is Staphylococcus aureus. Briefly: Antimicrobial activity against Staphylococcus aureus IVDC C56005 assessed as microbial growth inhibition in presence of pepsin. Format: functional, organism-based.
The test system of series [12] is Escherichia coli. Briefly: Antimicrobial activity against Escherichia coli K88 by microdilution assay. Format: functional.
In series [13] the test system is Salmonella enteritidis. Put plainly: Antimicrobial activity against Salmonella enterica serovar Enteritidis IVDC C79-52 by microdilution assay. Format: functional, Salmonella enterica subsp. enterica serovar Enteritidis.
Series [14] concerns Salmonella typhimurium. Briefly: Antimicrobial activity against Salmonella enterica serovar Typhimurium IVDC C77-31 by microdilution assay. Format: functional, Salmonella enterica subsp. enterica serovar Typhimurium.
Series [15] concerns Staphylococcus aureus. Put plainly: Antimicrobial activity against Staphylococcus aureus IVDC C56005 assessed as microbial growth inhibition at pH <4.0. Format: functional, organism-based.

≈ marks a conversion by molar mass, not a printed value. Calls of active or inactive are those of the source. No cut-off for these calls is given here. Where a SMILES comes first, the peptide text is derived from it.

With `CC[C@H](C)[C@H](NC(=O)[C@H](CCCCN)NC(=O)[C@H](CCCCN)NC(=O)[C@H](Cc1ccccc1)NC(=O)[C@H](CC(C)C)NC(=O)[C@H](CCCCN)NC(=O)[C@H](Cc1c[nH]c2ccccc12)NC(=O)[C@@H](N)CCCCN)C(=O)N[C@@H](CCC(=O)O)C(=O)N[C@@H](CCCCN)C(=O)N[C@H](C(=O)NCC(=O)N[C@@H](CCC(N)=O)C(=O)N[C@@H](CCCNC(=N)N)C(=O)N[C@H](C(=O)N[C@@H](CCCNC(=N)N)C(=O)N[C@@H](CC(=O)O)C(=O)N[C@@H](C)C(=O)N[C@H](C(=O)N[C@H](C(=O)N[C@@H](CO)C(=O)N[C@@H](C)C(=O)NCC(=O)N1CCC[C@H]1C(=O)N[C@@H](C)C(=O)N[C@H](C(=O)N[C@@H](C)C(=O)N[C@H](C(=O)N[C@H](C(=O)N[C@@H](C)C(=O)N[C@@H](CCC(N)=O)C(=O)N[C@@H](C)C(=O)N[C@H](C(=O)N[C@@H](C)C(=O)N[C@@H](CC(C)C)C(=O)N[C@@H](C)C(=O)N[C@@H](CCCCN)C(=O)O)[C@@H](C)O)C(C)C)[C@@H](C)O)C(C)C)[C@@H](C)CC)C(C)C)C(C)C)C(C)C` [CECROPIN AD] (H-KWKLFKKIEKVGQRVRDAVISAGPAVATVAQATALAK-OH), the “growth inhibition (GI)” value in series [1], in [4], in [6], in series [8] and in series [11] was “Active” throughout. The MIC was 24 µg/mL (≈ 6.07 µM) in series [2]; 0.2 µg/mL (≈ 0.0506 µM) in [5]; 2 µg/mL (≈ 0.506 µM) in series [7]; 1.8 µg/mL (≈ 0.456 µM) in series [9]; 2 µg/mL (≈ 0.506 µM) in series [12]; 16 µg/mL (≈ 4.05 µM) in series [13]. This molecule also came in with an MIC in series [14] of 8 µg/mL (≈ 2.02 µM). Besides, the Activity entry in series [3] is given as “Non-toxic”. Further, the “growth inhibition (GI)” value in series [10] and in [15] was “inactive” each time.

By MIC is commonly meant the least concentration at which growth counts as inhibited. Higher therefore signals weaker potency.

(Values after ChEMBL document CHEMBL1649582, “Novel expression vector for secretion of cecropin AD in Bacillus subtilis with enhanced antimicrobial activity” (Antimicrob Agents Chemother, 2009).)
